Measurements: patent US20250282794A1 (CURADEV PHARMA LTD, priority 2022, published 2025)

What follows are compounds tested against recombinant full length HPK-1 enzyme (Homo sapiens (Human), UniProt Q92918) (assay: HPK-1 biochemical enzyme assay (ADP-Glo kinase inhibition)). Settings: recombinant full length HPK-1 6.8 nM, 10 μM ATP, 12.5 μM MBP, 30 mins at 25° C.
Experimental: HPK-1 biochemical enzyme assay
Compound inhibitory potency was measured in an HPK-1 kinase inhibition assay. Briefly, recombinant full length HPK-1 enzyme (6.8 nM) was incubated with 10 μM ATP and 12.5 μM swine myelin basic protein (MBP) for 30 mins. at 25° C. in the presence of various concentrations of test compound or vehicle in 40 mM Tris.Cl pH7.4 buffer containing 20 mM MgCl2, 50 μM DTT and 0.1 mg/mL BSA. Reactions were quenched and reaction mixtures were then analyzed by an ADP-Glo kit which measures the formed ADP. The percent inhibition was calculated from the substrate conversion considering no enzyme control reactions for 100% inhibition and vehicle only reactions for 0% inhibition. The compounds were dissolved in DMSO and evaluated at 10 concentrations to determine an IC50 value.
In the below table A denotes an HPK-1 IC50≤10 nM, B denotes an HPK-1 IC50>10 nM but≤100 nM and C denotes an HPK-1 IC50>100 nM but≤1000 nM.

recombinant full length HPK-1 enzyme, sequence (Q92918 whole entry, species assumed): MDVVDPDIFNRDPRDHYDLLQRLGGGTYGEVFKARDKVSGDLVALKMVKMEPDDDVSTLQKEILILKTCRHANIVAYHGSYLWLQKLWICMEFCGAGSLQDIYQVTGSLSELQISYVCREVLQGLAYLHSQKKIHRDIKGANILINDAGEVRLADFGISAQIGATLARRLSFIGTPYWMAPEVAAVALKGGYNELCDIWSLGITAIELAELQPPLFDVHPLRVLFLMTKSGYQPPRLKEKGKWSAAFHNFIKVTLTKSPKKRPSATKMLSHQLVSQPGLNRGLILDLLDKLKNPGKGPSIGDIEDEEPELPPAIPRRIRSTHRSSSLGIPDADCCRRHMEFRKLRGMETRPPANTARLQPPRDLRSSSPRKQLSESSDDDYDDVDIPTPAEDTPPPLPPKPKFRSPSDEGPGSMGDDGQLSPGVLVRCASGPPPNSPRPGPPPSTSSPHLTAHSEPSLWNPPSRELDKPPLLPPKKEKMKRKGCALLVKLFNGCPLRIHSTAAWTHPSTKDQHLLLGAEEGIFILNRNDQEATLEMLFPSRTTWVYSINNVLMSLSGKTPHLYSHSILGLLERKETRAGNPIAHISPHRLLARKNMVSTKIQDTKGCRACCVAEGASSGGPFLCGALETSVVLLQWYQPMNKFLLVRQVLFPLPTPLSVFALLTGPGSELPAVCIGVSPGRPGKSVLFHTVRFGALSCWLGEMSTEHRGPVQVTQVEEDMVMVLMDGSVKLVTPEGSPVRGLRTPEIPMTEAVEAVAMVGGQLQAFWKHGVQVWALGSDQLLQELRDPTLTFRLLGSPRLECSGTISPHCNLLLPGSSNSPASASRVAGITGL

IC50 [nM] | Compound
10 to 100 | CCOCCN1CCN(c2ccc(NC(=O)c3c(Nc4cnc5c(c4C)NCCO5)cc[nH]c3=O)cc2)CC1 [Example 368, N-(4-(4-(2-ethoxyethyl)piperazin-1-yl)phenyl)-4-((8-methyl-2,3-dihydro-1H-pyrido[2,3-b][1,4]oxazin-7-yl)amino)-2-oxo-1,2-dihydropyridine-3-carboxamide]
10 to 100 | Cc1c(Nc2cc[nH]c(=O)c2C(=O)Nc2ccc(N3CCN(S(C)(=O)=O)CC3)cc2)cnc2c1NCCO2 [Example 262, 4-((8-methyl-2,3-dihydro-1H-pyrido[2,3-b][1,4]oxazin-7-yl)amino)-N-(4-(4-(methylsulfonyl)piperazin-1-yl)phenyl)-2-oxo-1,2-dihydropyridine-3-carboxamide]
≤ 10 | Cc1c(Nc2cc[nH]c(=O)c2C(=O)Nc2ccc(N3CCN(C)CC3)c(Br)c2)cnc2c1NCCO2 [Example 270, N-(3-bromo-4-(4-methylpiperazin-1-yl)phenyl)-4-((8-methyl-2,3-dihydro-1H-pyrido[2,3-b][1,4]oxazin-7-yl)amino)-2-oxo-1,2-dihydropyridine-3-carboxamide]
≤ 10 | Cc1c(Nc2cc[nH]c(=O)c2C(=O)Nc2ccc(N3CCN(C(=O)C(C)C)[C@@H](C)C3)cc2)cnc2c1NCCO2 [Example 343, (S)-N-(4-(4-isobutyryl-3-methylpiperazin-1-yl)phenyl)-4-((8-methyl-2,3-dihydro-1H-pyrido[2,3-b][1,4]oxazin-7-yl)amino)-2-oxo-1,2-dihydropyridine-3-carboxamide]
≤ 10 | COCCN(C)C(=O)N1CCN(c2ccc(NC(=O)c3c(Nc4cnc5c(c4C)NCCO5)cc[nH]c3=O)cc2)CC1 [Example 290, N-(2-methoxyethyl)-N-methyl-4-(4-(4-((8-methyl-2,3-dihydro-1H-pyrido[2,3-b][1,4]oxazin-7-yl)amino)-2-oxo-1,2-dihydropyridine-3-carboxamido)phenyl)piperazine-1-carboxamide]
10 to 100 | Cc1c(Nc2cc[nH]c(=O)c2C(=O)Nc2ccc(N3CCN(C)CC3=O)cc2)cnc2c1NCCO2 [Example 267, 4-((8-methyl-2,3-dihydro-1H-pyrido[2,3-b][1,4]oxazin-7-yl)amino)-N-(4-(4-methyl-2-oxopiperazin-1-yl)phenyl)-2-oxo-1,2-dihydropyridine-3-carboxamide]
≤ 10 | Cc1c(Nc2cc[nH]c(=O)c2C(=O)Nc2ccc(N3CCN(C(=O)C(C)(C)O)CC3)cc2)cnc2c1NCCO2 [Example 357, N-(4-(4-(2-hydroxy-2-methylpropanoyl)piperazin-1-yl)phenyl)-4-((8-methyl-2,3-dihydro-1H-pyrido[2,3-b][1,4]oxazin-7-yl)amino)-2-oxo-1,2-dihydropyridine-3-carboxamide]
≤ 10 | COCCN1CCN(c2ccc(NC(=O)c3c(Nc4cnc5c(c4C)NCC(C)O5)cc[nH]c3=O)cc2F)CC1 (centres unmarked) [Example 185, 4-((3,8-dimethyl-2,3-dihydro-1H-pyrido[2,3-b][1,4]oxazin-7-yl)amino)-N-(3-fluoro-4-(4-(2-methoxyethyl)piperazin-1-yl)phenyl)-2-oxo-1,2-dihydropyridine-3-carboxamide]
10 to 100 | Cc1c(Nc2cc[nH]c(=O)c2C(=O)Nc2ccc(N3CCN(C)CC3)cc2)cnc2c1NCC(F)O2 (centres unmarked) [Example 198, 4-((3-Fluoro-8-methyl-2,3-dihydro-1H-pyrido[2,3-b][1,4]oxazin-7-yl)amino)-N-(4-(4-methylpiperazin-1-yl)phenyl)-2-oxo-1,2-dihydropyridine-3-carboxamide]
10 to 100 | Cc1c(Nc2cc[nH]c(=O)c2C(=O)Nc2ccc3c(c2)CCC(=O)N3C)cnc2c1NCCO2 [Example 250, 4-((8-methyl-2,3-dihydro-1H-pyrido[2,3-b][1,4]oxazin-7-yl)amino)-N-(1-methyl-2-oxo-1,2,3,4-tetrahydroquinolin-6-yl)-2-oxo-1,2-dihydropyridine-3-carboxamide]
≤ 10 | Cc1c(Nc2cc[nH]c(=O)c2C(=O)Nc2ccc(N3CCN(C(=O)C4(C)CC4)CC3)cc2)cnc2c1NCCO2 [Example 355, 4-((8-methyl-2,3-dihydro-1H-pyrido[2,3-b][1,4]oxazin-7-yl)amino)-N-(4-(4-(1-methylcyclopropane-1-carbonyl)piperazin-1-yl)phenyl)-2-oxo-1,2-dihydropyridine-3-carboxamide]
≤ 10 | CCC(=O)N1CCN(c2ccc(NC(=O)c3c(Nc4cnc5c(c4C)NCCO5)cc[nH]c3=O)cc2)CC1 [Example 251, 4-((8-methyl-2,3-dihydro-1H-pyrido[2,3-b][1,4]oxazin-7-yl)amino)-2-oxo-N-(4-(4-propionylpiperazin-1-yl)phenyl)-1,2-dihydropyridine-3-carboxamide]
100 to 1000 | Cc1c(Nc2cc[nH]c(=O)c2C(=O)Nc2ccc3ncc(O)nc3c2)cnc2c1NCCO2 [Example 273, N-(3-hydroxyquinoxalin-6-yl)-4-((8-methyl-2,3-dihydro-1H-pyrido[2,3-b][1,4]oxazin-7-yl)amino)-2-oxo-1,2-dihydropyridine-3-carboxamide]
10 to 100 | Cc1c(Nc2cc[nH]c(=O)c2C(=O)Nc2ccc(N3CCN(C(=O)c4ccnn4C)CC3)cc2)cnc2c1NCCO2 [Example 316, N-(4-(4-(1-methyl-1H-pyrazole-5-carbonyl)piperazin-1-yl)phenyl)-4-((8-methyl-2,3-dihydro-1H-pyrido[2,3-b][1,4]oxazin-7-yl)amino)-2-oxo-1,2-dihydropyridine-3-carboxamide]
10 to 100 | Cc1c(Nc2cc[nH]c(=O)c2C(=O)Nc2ccc(N3CCN(C)CC3)nc2)cnc2c1NCC(C)O2 (centres unmarked) [Example 199]
≤ 10 | Cc1c(Nc2cc[nH]c(=O)c2C(=O)Nc2ccc(N3CCN(CC(=O)N(C)C)CC3)cc2)cnc2c1NCCO2 [Example 298, N-(4-(4-(2-(dimethylamino)-2-oxoethyl)piperazin-1-yl)phenyl)-4-((8-methyl-2,3-dihydro-1H-pyrido[2,3-b][1,4]oxazin-7-yl)amino)-2-oxo-1,2-dihydropyridine-3-carboxamide]
10 to 100 | Cc1c(Nc2cc[nH]c(=O)c2C(=O)Nc2ccc(N3CCN(C(=O)C(C)N(C)C)CC3)cc2)cnc2c1NCCO2 (centres unmarked) [Example 358, N-(4-(4-(dimethylalanyl)piperazin-1-yl)phenyl)-4-((8-methyl-2,3-dihydro-1H-pyrido[2,3-b][1,4]oxazin-7-yl)amino)-2-oxo-1,2-dihydropyridine-3-carboxamide]
10 to 100 | Cc1nc2ccc(NC(=O)c3c(Nc4cnc5c(c4C)NCCO5)cc[nH]c3=O)cc2s1 [Example 249, 4-((8-methyl-2,3-dihydro-1H-pyrido[2,3-b][1,4]oxazin-7-yl)amino)-N-(2-methylbenzo[d]thiazol-6-yl)-2-oxo-1,2-dihydropyridine-3-carboxamide]
10 to 100 | CCCCC(CC)CNC(=O)c1ccc(NC(=O)c2c(Nc3cnc4c(c3C)NCCO4)cc[nH]c2=O)cc1 (centres unmarked) [Example 281, N-(4-((2-ethylhexyl)carbamoyl)phenyl)-4-((8-methyl-2,3-dihydro-1H-pyrido[2,3-b][1,4]oxazin-7-yl)amino)-2-oxo-1,2-dihydropyridine-3-carboxamide]
10 to 100 | Cc1c(Nc2cc[nH]c(=O)c2C(=O)Nc2ccc3c(c2)CCCN3)cnc2c1NCCO2 [Example 254, 4-((8-methyl-2,3-dihydro-1H-pyrido[2,3-b][1,4]oxazin-7-yl)amino)-2-oxo-N-(1,2,3,4-tetrahydroquinolin-6-yl)-1,2-dihydropyridine-3-carboxamide]
≤ 10 | CCN1CCN(c2ccc(NC(=O)c3c(Nc4cnc5c(c4C)NCCO5)cc[nH]c3=O)cc2F)CC1 [Example 135, N-(4-(4-ethylpiperazin-1-yl)-3-fluorophenyl)-4-((8-methyl-2,3-dihydro-1H-pyrido[2,3-b][1,4]oxazin-7-yl)amino)-2-oxo-1,2-dihydropyridine-3-carboxamide]
≤ 10 | Cc1c(Nc2cc[nH]c(=O)c2C(=O)Nc2ccc(N3CCN(C4CCCC4)CC3)cc2)cnc2c1NCC(C)O2 (centres unmarked) [Example 187, N-(4-(4-cyclopentylpiperazin-1-yl)phenyl)-4-((3,8-dimethyl-2,3-dihydro-1H-pyrido[2,3-b][1,4]oxazin-7-yl)amino)-2-oxo-1,2-dihydropyridine-3-carboxamide]
10 to 100 | Cc1c(Nc2cc[nH]c(=O)c2C(=O)Nc2ccc(CN3CCN(C)CC3)cc2)cnc2c1NCCO2 [Example 206, 4-((8-methyl-2,3-dihydro-1H-pyrido[2,3-b][1,4]oxazin-7-yl)amino)-N-(4-((4-methylpiperazin-1-yl)methyl)phenyl)-2-oxo-1,2-dihydropyridine-3-carboxamide]
10 to 100 | Cc1c(Nc2cc[nH]c(=O)c2C(=O)Nc2ccc3c(c2)CN(C)C(=O)C3)cnc2c1NCCO2 [Example 180, 4-((8-methyl-2,3-dihydro-1H-pyrido[2,3-b][1,4]oxazin-7-yl)amino)-N-(2-methyl-3-oxo-1,2,3,4-tetrahydroisoquinolin-7-yl)-2-oxo-1,2-dihydropyridine-3-carboxamide]
10 to 100 | Cc1c(Nc2cc[nH]c(=O)c2C(=O)Nc2ccc(N3CCN(c4cscn4)CC3)cc2)cnc2c1NCCO2 [Example 367, 4-((8-methyl-2,3-dihydro-1H-pyrido[2,3-b][1,4]oxazin-7-yl)amino)-2-oxo-N-(4-(4-(thiazol-4-yl)piperazin-1-yl)phenyl)-1,2-dihydropyridine-3-carboxamide]
100 to 1000 | Cc1c(Nc2cc[nH]c(=O)c2C(=O)Nc2ccc(C3CCCCC3)cc2)cnc2c1NCCO2 [Example 330, N-(4-cyclohexylphenyl)-4-((8-methyl-2,3-dihydro-1H-pyrido[2,3-b][1,4]oxazin-7-yl)amino)-2-oxo-1,2-dihydropyridine-3-carboxamide]
